Source: article PMC8107365, “Overlapping Properties of the Short Membrane-Active Peptide BP100 With (i) Polycationic TAT and (ii) α-helical Magainin Family Peptides” (Frontiers in Cellular and Infection Microbiology, 2021)
Values after ≈ are worked out from the molar mass of the structure shown. Values joined by “and” are separate entries in the source; they are usually repeats but may differ in a detail not shown here. Identical values can stand only once. Like-named read-outs stand apart in the source and are kept apart here. Marks after values point to notes of the source that are not given here. Where a SMILES comes first, the peptide text is derived from it.

Key:
human erythrocytes = experiment: Hemolysis assay; conditions: for HC10, concentration that induced 10% hemolysis: human erythrocytes 0.25% (v/v), Tris buffer pH 7.6/DMSO, 37°C, 20 min, absorbance 540 nm, relative to Triton X-100, up to 100 µM peptide
Description: The hemolytic effect of the peptides was tested on human erythrocytes as previously described ([Strandberg et al., 2007]). Citrate phosphate dextrose-stabilized blood bags with erythrocyte suspensions were obtained from the blood bank of the local municipal hospital (Karlsruhe, Germany). Erythrocytes were washed twice with 9-fold excess of Tris buffer (172 mM, pH 7.6 at 0°C) followed by centrifugation at 600 g for 10 min at 4°C, and kept on ice in between. After the second wash, the erythrocytes were transferred from the sediment to a fresh tube with the same precooled buffer to be diluted to about 10% (v/v) hematocrit, giving the stock cell suspension, which was kept on ice. […] The stock cell suspension was further diluted to about 0.5% (v/v). After preincubating for 3 min, 200 μL of the resulting erythrocyte dilution was transferred to each tube of the corresponding peptide serial dilution, to a final concentration of 0.25% (v/v). For each dilution series, zero hemolysis was obtained by adding the erythrocytes to Tris buffer (pH 7.6 at 37°C)/dimethylsulfoxide (9:1 v/v) and measuring the background lysis in the absence of peptide. For 100% hemolysis, the erythrocytes were added to 0.2% of Triton X-100 (Sigma, Germany) in the same buffer, giving a final concentration of 0.1% Triton X-100. Incubation was performed at 37°C for 20 min with gentle shaking. The tubes were centrifuged at 20 000 g for 5 min to pellet the cells, and the absorbance at 540 nm was recorded against water. The percentage lysis was then calculated relative to 0% lysis with buffer and 100% lysis by Triton X-100. The absorbance measurement was repeated three times, and the averaged values are used.

HeLa cells = experiment: Toxicity against HeLa cells (calcein AM, fluorescence microscopy); assay type: cell-based, human; conditions: for Toxicity (HeLa): overview Figure 5; for HeLa cells: lowest tested concentration where dead HeLa cells were observed: peptides N-terminally labeled with Fluka 630 red, 30 min, 37°C, HKR buffer pH 7.4, calcein AM, confocal microscopy
Description: HeLa TK A549 cells (from DSMZ, Braunschweig, Germany) were cultivated in minimal essential medium (MEM) with 10% fetal calf serum (FCS) (PAA, Cöble, Germany), and Glutamax (Invitrogen, Karlsruhe, Germany), without antibiotics. Cell density after incubation over night was 30000 cells/chamber in 300 µL medium. For experiments, the medium was removed and cells incubated with peptides at the respective concentration in HEPES Krebs Ringer (HKR) buffer, which consists of 5 mM HEPES, 137 mM NaCl, 2.68 mM KCl, 2.05 mM MgCl2, 1.8 mM CaCl2, and 5.55 mM glucose, pH 7.4. After 30 min (37°C, 5% CO2) cells were washed with HKR buffer, and the behavior of cells at variable peptide concentration examined. A confocal microscope type SP 5 from Leica was used for fluorescence microscopy. The 488 nm line of an argon laser was used for excitation of calcein and the 633 nm line of a helium-neon laser was used for excitation of Fluka 630 red. For kinetic experiments, cells were washed after incubation for 30 minutes and placed into MEM medium at 37°C, and studied after 1, 2, 4, 8 and 24 h. Five minutes before microscopy, calcein AM (Fluka, Buchs, Switzerland) was added to a final concentration of 1 nM to examine cell viability. To avoid artifacts, cells were not fixed.

[1] = system: Enterobacter helveticus (DSM 18396)
Description: (§1) The antimicrobial activity of BP100 was tested using a standard MIC dilution assay, as previously described ([Strandberg et al., 2007]; [Wadhwani et al., 2012a]). Two Gram-negative strains, Escherichia coli (DSM 498) (K12) and Enterobacter helveticus (DSM 18396), and one Gram-positive strain, Kocuria rhizophila (DSM 348) were used. Bacteria were grown in Luria-Bertani medium at 37°C and 230 rpm overnight, and diluted in 1% trypticase soy broth (TSB). Peptide stock solutions (1024 μg/mL) were prepared in water. Microtiter plates (96 wells of 100 μl) were filled with 50 μl of 1% TSB, and serial 2-fold dilutions of peptides were arranged in columns. The two final rows of each plate remained without peptide, so that the penultimate data point served as the positive control (no peptide) and the final one as the negative control (not inoculated). To each well (except for the final row of each plate), an aliquot of 50 µl of a bacterial suspension containing 10^6 colony-forming units/mL was added to obtain a final volume of 100 µL. Antibacterial activities are expressed as the MIC and correspond to the lowest concentration of peptide, in micromolar units, at which no bacterial growth was detected after overnight incubation at 37°C. The tests were made in triplicate for each peptide, and the value shown is the lowest concentration where at least for two repetitions the growth was inhibited.

[2] = system: Escherichia coli (DSM 498) (K12)
Description: as §1

[3] = system: Kocuria rhizophila (DSM 348)
Description: as §1

erythrocytes = conditions: ref Sabatier et al., 1991; Wang et al., 2010; cited from earlier work
From the text: Considering that Table 2 (and Figure 2 ) gives the percent of hemolysis as a function of concentration in µM, it can be noted that BP100 c ...

tested bacteria = conditions: E. coli DSM 498, E. helveticus, K. rhizophila
Description: as §1

[4] = ref Thorén et al., 2005; cited from earlier work
From the text: Another kind of action of membrane-bound peptides is to facilitate fusion between membranes of vesicles or cells. We find here that BP100 has strong fusogenic activity ( Figure 4 ), even higher than the dedicated fusion peptide, FP23 from HIV-1, except in uncharged POPC/CHOL. […] These fusion results fit well with a previous comparison of different AMPs and CPPs ([Wadhwani et al., 2012b]). Obvio ...

[5] = serial 2-fold dilution, 1% TSB, overnight 37°C, triplicate, lowest concentration inhibiting growth in at least two repetitions

Compound | HC10, concentration that induced 10% hemolysis (human erythrocytes) | Hemolysis (human erythrocytes; overview Figure 5) | Toxicity (HeLa) (HeLa cells) | HeLa cells: lowest tested concentration where dead HeLa cells were observed (HeLa cells) | MIC E. helveticus [1, 5] | MIC E. coli (DSM 498) [2, 5] | MIC K. rhizophila [3, 5] | Hemolysis (human erythrocytes) | MIC E. helveticus ([1]; DSM 18396) | MIC E. coli (DSM 498) ([2]; DSM 498) | MIC K. rhizophila ([3]; DSM 348) | Hemolytic activity, in words (human erythrocytes; peptide concentrations up to 100 µM) | Hemolytic activity, in words (literature) (erythrocytes) | MIC over the three tested strains (tested bacteria) | Lipid mixing, in words [4]
CC[C@H](C)[C@H](NC(=O)[C@H](CCCCN)NC(=O)[C@H](CCCCN)NC(=O)[C@H](Cc1ccccc1)NC(=O)[C@H](CC(C)C)NC(=O)[C@H](CCCCN)NC(=O)[C@@H](N)CCCCN)C(=O)N[C@@H](CC(C)C)C(=O)N[C@@H](CCCCN)C(=O)N[C@@H](Cc1ccc(O)cc1)C(=O)N[C@@H](CC(C)C)C(N)=O [BP100] | 45 µM | ++ | +++ | 4 µM | 6.3 µM (≈ 8.95 µg/mL) | 6.3 µM (≈ 8.95 µg/mL) | 3.2 µM (≈ 4.55 µg/mL) |  |  |  |  |  |  |  | 
CC[C@H](C)[C@H](NC(=O)CN)C(=O)NCC(=O)N[C@@H](CCCCN)C(=O)N[C@@H](Cc1ccccc1)C(=O)N[C@@H](CC(C)C)C(=O)N[C@@H](Cc1c[nH]cn1)C(=O)N[C@@H](CO)C(=O)N[C@@H](C)C(=O)N[C@@H](CCCCN)C(=O)N[C@@H](CCCCN)C(=O)N[C@@H](Cc1ccccc1)C(=O)NCC(=O)N[C@@H](CCCCN)C(=O)N[C@@H](C)C(=O)N[C@@H](Cc1ccccc1)C(=O)N[C@H](C(=O)NCC(=O)N[C@@H](CCC(=O)O)C(=O)N[C@H](C(=O)N[C@@H](CCSC)C(=O)N[C@@H](CC(N)=O)C(=O)N[C@@H](CO)C(=O)O)[C@@H](C)CC)C(C)C [MAG2, magainin 2] (H-GIGKFLHSAKKFGKAFVGEIMNS-OH) |  |  | + | 20 µM |  |  |  |  |  |  |  |  |  |  | 
CC(C)C[C@H](NC(=O)[C@H](C)NC(=O)[C@H](CCCCN)NC(=O)[C@H](CC(C)C)NC(=O)[C@H](C)NC(=O)[C@H](CC(C)C)NC(=O)[C@H](CCCCN)NC(=O)[C@H](CC(C)C)NC(=O)[C@H](C)NC(=O)[C@H](CC(C)C)NC(=O)[C@@H](N)CCCCN)C(=O)N[C@@H](CCCCN)C(=O)N[C@@H](C)C(=O)N[C@@H](C)C(=O)N[C@@H](CC(C)C)C(=O)N[C@@H](CCCCN)C(=O)N[C@@H](CC(C)C)C(=O)N[C@@H](C)C(N)=O [MAP] | 2 µM | +++ | +++ | 2 µM | 3.2 µM (≈ 6 µg/mL) | 25 µM (≈ 46.9 µg/mL) | 0.4 µM (≈ 0.751 µg/mL) |  |  |  |  |  |  |  | 
CC[C@H](C)[C@H](NC(=O)[C@H](CCCCN)NC(=O)CNC(=O)[C@H](C)NC(=O)[C@@H](NC(=O)[C@H](CCCCN)NC(=O)[C@H](C)NC(=O)[C@@H](NC(=O)[C@H](CCCCN)NC(=O)CNC(=O)[C@H](C)NC(=O)[C@@H](NC(=O)[C@H](CCCCN)NC(=O)[C@H](C)NC(=O)[C@@H](NC(=O)[C@H](CCCCN)NC(=O)CNC(=O)[C@H](C)NC(=O)[C@@H](NC(=O)[C@@H](N)CCCCN)[C@@H](C)CC)[C@@H](C)CC)[C@@H](C)CC)[C@@H](C)CC)[C@@H](C)CC)C(=O)N[C@@H](C)C(N)=O [MSI-103] (H-KIAGKIAKIAGKIAKIAGKIA-NH2) |  |  | +++ |  |  |  |  | ++ | 1.6 µM (≈ 3.3 µg/mL) | 12.5 µM (≈ 25.8 µg/mL) | 0.8 µM (≈ 1.65 µg/mL) |  |  |  | 
CC[C@H](C)[C@H](NC(=O)[C@H](C)NC(=O)CNC(=O)[C@H](C)NC(=O)[C@H](CCCCN)NC(=O)[C@H](CO)NC(=O)[C@H](C)NC(=O)[C@H](CCSC)NC(=O)CN)C(=O)N[C@@H](C)C(=O)NCC(=O)N[C@@H](CCCCN)C(=O)N[C@H](C(=O)N[C@@H](C)C(=O)N[C@@H](CCCCN)C(=O)N[C@H](C(=O)N[C@@H](C)C(=O)N[C@@H](CC(C)C)C(=O)N[C@@H](CCCCN)C(=O)N[C@@H](C)C(=O)N[C@@H](CC(C)C)C(N)=O)C(C)C)[C@@H](C)CC [PGLa] (H-GMASKAGAIAGKIAKVALKAL-NH2) | 16 µM | ++ | + | 10 µM | 16.3 µM (≈ 32.1 µg/mL) | 25 µM (≈ 49.2 µg/mL) | 4.1 µM (≈ 8.07 µg/mL) |  |  |  |  |  |  |  | 
N=C(N)NCCC[C@H](NC(=O)CN)C(=O)N[C@@H](CCCCN)C(=O)N[C@@H](CCCCN)C(=O)N[C@@H](CCCNC(=N)N)C(=O)N[C@@H](CCCNC(=N)N)C(=O)N[C@@H](CCC(N)=O)C(=O)N[C@@H](CCCNC(=N)N)C(=O)N[C@@H](CCCNC(=N)N)C(=O)N[C@@H](CCCNC(=N)N)C(=O)N1CCC[C@H]1C(=O)N1CCC[C@H]1C(=O)N[C@@H](CCC(N)=O)C(=O)O [TAT] | >>100 μM | - | - | > 20 μM and > 20 ^e μM | 500 µM (≈ 860 µg/mL) | >500 ^e μM | 125 µM (≈ 215 µg/mL) |  |  |  |  | hardly any hemolytic activity | did not show any hemolytic activity | at least 125 µM | 
Ac-GRKKRRQRRRPWQ-NH2 [TATP59W] |  |  |  |  |  |  |  |  |  |  |  |  |  |  | high extent of lipid mixing
